Test results: ChEMBL document CHEMBL1201862, “PubChem BioAssay data set” (2004)
The source made the active and inactive calls.

What was measured:
[1] = target: T1, Sentrin-specific protease 6 (Homo sapiens, UniProt Q9GZR1); type: functional;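 further: Luminescence-based dose-response confirmatory assay of SENP6 inhibition, following up an ultra-high-throughput screen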
T1 sequence (Q9GZR1 whole entry): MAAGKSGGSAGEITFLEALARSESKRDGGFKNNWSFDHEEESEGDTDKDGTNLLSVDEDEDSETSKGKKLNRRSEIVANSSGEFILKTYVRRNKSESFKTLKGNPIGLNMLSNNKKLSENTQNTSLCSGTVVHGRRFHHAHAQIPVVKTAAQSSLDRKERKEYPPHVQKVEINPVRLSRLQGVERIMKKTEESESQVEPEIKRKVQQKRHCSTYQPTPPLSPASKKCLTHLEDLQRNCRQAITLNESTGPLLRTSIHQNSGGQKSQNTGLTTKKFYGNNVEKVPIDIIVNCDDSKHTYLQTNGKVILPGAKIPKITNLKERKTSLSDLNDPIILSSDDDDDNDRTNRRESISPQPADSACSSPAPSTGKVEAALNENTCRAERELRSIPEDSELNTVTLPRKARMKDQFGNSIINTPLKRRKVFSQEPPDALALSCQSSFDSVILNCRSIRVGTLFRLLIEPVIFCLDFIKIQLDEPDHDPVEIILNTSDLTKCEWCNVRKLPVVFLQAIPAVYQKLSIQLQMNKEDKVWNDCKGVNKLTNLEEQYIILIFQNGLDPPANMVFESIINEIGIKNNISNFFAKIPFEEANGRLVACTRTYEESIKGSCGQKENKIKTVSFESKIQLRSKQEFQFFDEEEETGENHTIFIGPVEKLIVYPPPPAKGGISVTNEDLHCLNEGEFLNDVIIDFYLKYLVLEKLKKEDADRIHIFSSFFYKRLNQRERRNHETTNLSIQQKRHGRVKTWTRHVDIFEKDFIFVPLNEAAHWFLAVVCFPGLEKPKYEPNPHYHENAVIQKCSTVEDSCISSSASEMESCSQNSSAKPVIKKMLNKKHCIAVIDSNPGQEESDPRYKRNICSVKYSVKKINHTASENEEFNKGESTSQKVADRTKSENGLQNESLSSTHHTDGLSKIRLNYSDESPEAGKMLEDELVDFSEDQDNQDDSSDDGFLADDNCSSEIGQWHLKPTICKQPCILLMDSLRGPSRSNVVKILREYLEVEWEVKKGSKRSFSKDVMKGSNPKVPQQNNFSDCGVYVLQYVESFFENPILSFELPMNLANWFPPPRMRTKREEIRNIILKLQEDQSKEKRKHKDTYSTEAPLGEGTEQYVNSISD

[2] = target: T2, Tyrosyl-DNA phosphodiesterase 2 (Homo sapiens, UniProt O95551); experiment: potency against TDP2 phosphodiesterase activity – biochemical, epi absorbance, IC50, dose response (AID 743297)
T2 sequence (O95551 whole entry): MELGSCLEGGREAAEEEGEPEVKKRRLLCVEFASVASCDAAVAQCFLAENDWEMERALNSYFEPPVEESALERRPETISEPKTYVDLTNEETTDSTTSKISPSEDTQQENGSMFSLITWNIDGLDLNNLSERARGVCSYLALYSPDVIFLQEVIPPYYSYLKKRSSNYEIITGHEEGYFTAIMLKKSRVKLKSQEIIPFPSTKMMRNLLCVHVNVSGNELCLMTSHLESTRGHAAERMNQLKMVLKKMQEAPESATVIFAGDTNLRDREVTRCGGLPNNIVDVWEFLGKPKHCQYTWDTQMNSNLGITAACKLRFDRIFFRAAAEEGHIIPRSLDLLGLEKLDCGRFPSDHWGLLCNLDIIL

[3] = IC50 of Artemis nuclease activity blockers – biochemical, fluorescence intensity, dose response (AID 720701); type: functional;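 further: Artemis endonuclease enzyme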
[4] = viability loss in HeLa cells – cytotoxicity control for MgcRacGAP inhibitor project, dose response (AID 624300); type: functional
[5] = Counterscreen for AddAB inhibitors: absorbance-based bacterial cell-based high throughput dose response assay for inhibitors of bacterial viability. [Related pubchem assays (depositor defined):AID435030, AID449728, AID449731, AID488942, AID488955, AID488956]; type: functional
[6] = target: 26S proteasome non-ATPase regulatory subunit 14 (Homo sapiens, UniProt O00487); experiment: inhibition of proteasome subunit RPN11 – biochemical, fluorescence polarization, uHTS hits, confirmation (AID 602368); type: functional
Sequence of 26S proteasome non-ATPase regulatory subunit 14 (O00487 whole entry): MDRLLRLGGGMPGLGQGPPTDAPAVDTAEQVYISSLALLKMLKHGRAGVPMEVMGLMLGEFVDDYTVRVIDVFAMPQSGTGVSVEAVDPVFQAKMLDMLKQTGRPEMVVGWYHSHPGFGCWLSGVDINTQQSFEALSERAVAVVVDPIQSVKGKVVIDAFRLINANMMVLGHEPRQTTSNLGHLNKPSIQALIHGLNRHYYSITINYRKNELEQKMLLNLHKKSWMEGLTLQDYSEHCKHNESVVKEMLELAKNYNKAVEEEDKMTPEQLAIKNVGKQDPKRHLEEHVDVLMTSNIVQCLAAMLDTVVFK

| IC50 [1] | IC50 [2] | IC50 [3] | Structure (SMILES) | CC50 [4] | IC50 [5] | IC50 [6] |
| --- | --- | --- | --- | --- | --- | --- |
| 6.06 µM (active) | 6.48 µM (active) | 18.3 µM (active) | CC(=O)N(/N=C1\Sc2ccccc2C1=O)c1cccc(C)c1 | – | – | – |
| – | – | – | O=[N+]([O-])c1ccc(N/N=C/c2ccc[nH]2)cc1 | 100 µM (active) | > 119 µM (inactive) | 8.96 µM (active) |
